Reference: the NIST ThermoML archive (doi:10.1016/j.fluid.2004.09.013)

Conditions: for mass density: Fluid (supercritical or subcritical phases), Vibrating tube method; for vapor or sublimation pressure: Liquid

C/C=C/C [(E)-2-butene]
Conditions	mass density [kg/m3]
273.24 K, 553 kPa	627.87
273.24 K, 4992 kPa	633.27
273.24 K, 9995 kPa	638.88
273.24 K, 14991 kPa	644.04
273.24 K, 19997 kPa	648.86
273.24 K, 24996 kPa	653.38
273.24 K, 29993 kPa	657.62
273.24 K, 34997 kPa	661.64
273.24 K, 39989 kPa	665.43
278.25 K, 553 kPa	622.2
278.25 K, 4990 kPa	627.88
278.25 K, 10005 kPa	633.76
278.25 K, 15007 kPa	639.16
278.25 K, 20007 kPa	644.16
278.25 K, 24990 kPa	648.82
278.25 K, 30005 kPa	653.23
278.25 K, 34987 kPa	657.36
278.25 K, 40004 kPa	661.3
283.26 K, 551 kPa	616.48
283.26 K, 4990 kPa	622.46
283.26 K, 9993 kPa	628.6
283.26 K, 15009 kPa	634.25
283.26 K, 20003 kPa	639.45
283.26 K, 24994 kPa	644.29
283.26 K, 29985 kPa	648.83
283.26 K, 35008 kPa	653.12
283.26 K, 40005 kPa	657.17
288.27 K, 548 kPa	610.68
288.27 K, 4995 kPa	616.99
288.27 K, 9994 kPa	623.43
288.27 K, 14992 kPa	629.3
288.27 K, 19992 kPa	634.71
288.27 K, 24999 kPa	639.75
288.27 K, 29993 kPa	644.44
288.27 K, 34985 kPa	648.85
288.27 K, 40007 kPa	653.04
293.28 K, 550 kPa	604.8
293.28 K, 4985 kPa	611.45
293.28 K, 9991 kPa	618.21
293.28 K, 14993 kPa	624.34
293.28 K, 19997 kPa	629.98
293.28 K, 24993 kPa	635.19
293.28 K, 29998 kPa	640.06
293.28 K, 35013 kPa	644.64
293.28 K, 39998 kPa	648.92
298.29 K, 551 kPa	598.83
298.29 K, 4989 kPa	605.85
298.29 K, 14986 kPa	619.36
298.29 K, 19984 kPa	625.21
298.29 K, 25012 kPa	630.65
298.29 K, 29999 kPa	635.67
298.29 K, 34986 kPa	640.36
298.29 K, 39987 kPa	644.79
298.3 K, 9994 kPa	612.96
303.3 K, 590 kPa	592.81
303.3 K, 4982 kPa	600.18
303.3 K, 9998 kPa	607.66
303.3 K, 19987 kPa	620.43
303.3 K, 25004 kPa	626.07
303.3 K, 29998 kPa	631.26
303.3 K, 35005 kPa	636.13
303.31 K, 15001 kPa	614.35
303.31 K, 39999 kPa	640.69
308.31 K, 635 kPa	586.69
308.31 K, 4989 kPa	594.43
308.32 K, 10005 kPa	602.29
308.32 K, 14996 kPa	609.28
308.32 K, 19995 kPa	615.63
308.32 K, 24994 kPa	621.44
308.32 K, 29983 kPa	626.82
308.32 K, 35009 kPa	631.86
308.32 K, 39996 kPa	636.54
313.2 K, 869 kPa	580.91
313.21 K, 4996 kPa	588.66
313.21 K, 10004 kPa	596.91
313.21 K, 14989 kPa	604.2
313.21 K, 20008 kPa	610.83
313.21 K, 24999 kPa	616.85
313.21 K, 29996 kPa	622.41
313.21 K, 34992 kPa	627.58
313.21 K, 39986 kPa	632.41
318.21 K, 939 kPa	574.67
318.21 K, 5000 kPa	582.76
318.21 K, 9985 kPa	591.43
318.21 K, 14990 kPa	599.1
318.21 K, 20004 kPa	605.99
318.21 K, 25005 kPa	612.25
318.21 K, 29987 kPa	617.99
318.21 K, 34986 kPa	623.33
318.21 K, 39990 kPa	628.31
323.22 K, 1000 kPa	568.23
323.22 K, 4994 kPa	576.71
323.22 K, 9997 kPa	585.9
323.22 K, 14997 kPa	593.93
323.22 K, 19997 kPa	601.1
323.22 K, 24992 kPa	607.59
323.22 K, 30007 kPa	613.57
323.22 K, 34983 kPa	619.06
323.22 K, 39993 kPa	624.2
328.22 K, 1068 kPa	561.65
328.22 K, 4987 kPa	570.54
328.22 K, 9989 kPa	580.26
328.22 K, 14994 kPa	588.69
328.22 K, 19994 kPa	596.17
328.22 K, 24990 kPa	602.92
328.22 K, 30006 kPa	609.12
328.22 K, 34984 kPa	614.78
328.22 K, 39992 kPa	620.09
333.22 K, 1143 kPa	554.92
333.22 K, 5001 kPa	564.29
333.22 K, 9997 kPa	574.58
333.22 K, 15004 kPa	583.44
333.22 K, 19992 kPa	591.23
333.22 K, 25005 kPa	598.27
333.22 K, 30004 kPa	604.66
333.22 K, 35005 kPa	610.54
333.22 K, 39985 kPa	615.98
338.22 K, 1226 kPa	548.04
338.22 K, 4986 kPa	557.85
338.22 K, 10000 kPa	568.81
338.22 K, 15000 kPa	578.1
338.22 K, 20000 kPa	586.27
338.22 K, 25000 kPa	593.57
338.22 K, 29994 kPa	600.18
338.22 K, 35008 kPa	606.28
338.22 K, 39996 kPa	611.89
343.22 K, 1315 kPa	540.98
343.22 K, 29988 kPa	595.68
343.22 K, 34990 kPa	601.95
343.22 K, 39986 kPa	607.75
343.23 K, 4999 kPa	551.32
343.23 K, 10003 kPa	562.95
343.23 K, 14999 kPa	572.73
343.23 K, 19997 kPa	581.25
343.23 K, 25007 kPa	588.85
348.23 K, 1414 kPa	533.71
348.23 K, 4992 kPa	544.57
348.23 K, 10005 kPa	556.98
348.23 K, 14992 kPa	567.27
348.23 K, 19998 kPa	576.19
348.23 K, 25013 kPa	584.1
348.23 K, 29992 kPa	591.18
348.23 K, 35003 kPa	597.68
348.23 K, 39996 kPa	603.63
353.23 K, 1522 kPa	526.23
353.23 K, 4999 kPa	537.68
353.23 K, 9984 kPa	550.87
353.23 K, 14991 kPa	561.76
353.23 K, 20002 kPa	571.1
353.23 K, 25003 kPa	579.31
353.23 K, 30000 kPa	586.67
353.23 K, 35004 kPa	593.37
353.23 K, 39995 kPa	599.51
358.23 K, 1641 kPa	518.52
358.23 K, 4984 kPa	530.51
358.23 K, 10005 kPa	544.73
358.23 K, 14998 kPa	556.2
358.23 K, 20004 kPa	565.97
358.23 K, 24987 kPa	574.48
358.23 K, 29994 kPa	582.12
358.23 K, 35007 kPa	589.05
358.23 K, 39996 kPa	595.37
363.23 K, 1765 kPa	510.53
363.23 K, 5001 kPa	523.21
363.23 K, 9988 kPa	538.37
363.23 K, 14981 kPa	550.47
363.23 K, 19993 kPa	560.72
363.23 K, 25001 kPa	569.62
363.23 K, 30001 kPa	577.52
363.23 K, 34991 kPa	584.64
363.23 K, 40008 kPa	591.18
368.24 K, 1900 kPa	502.25
368.24 K, 4996 kPa	515.59
368.24 K, 9996 kPa	531.94
368.24 K, 14998 kPa	544.78
368.24 K, 19997 kPa	555.48
368.24 K, 25002 kPa	564.74
368.24 K, 29994 kPa	572.92
368.24 K, 35003 kPa	580.31
368.24 K, 39988 kPa	587
373.23 K, 2021 kPa	493.52
373.23 K, 4987 kPa	507.69
373.23 K, 9991 kPa	525.4
373.23 K, 14991 kPa	538.98
373.23 K, 19999 kPa	550.26
373.24 K, 24990 kPa	559.83
373.24 K, 29992 kPa	568.32
373.24 K, 34981 kPa	575.91
373.24 K, 39982 kPa	582.83
378.24 K, 2209 kPa	484.69
378.24 K, 5019 kPa	499.59
378.24 K, 10006 kPa	518.69
378.24 K, 14990 kPa	533.06
378.24 K, 20005 kPa	544.87
378.24 K, 25019 kPa	554.94
378.24 K, 30003 kPa	563.71
378.24 K, 34996 kPa	571.57
378.24 K, 40001 kPa	578.7
383.24 K, 2379 kPa	475.33
383.24 K, 5004 kPa	490.95
383.24 K, 10000 kPa	511.79
383.24 K, 14991 kPa	527.07
383.24 K, 19991 kPa	539.46
383.24 K, 24987 kPa	549.92
383.24 K, 30002 kPa	559.07
383.24 K, 34999 kPa	567.19
383.24 K, 39984 kPa	574.5
388.24 K, 2560 kPa	465.51
388.24 K, 4995 kPa	481.89
388.24 K, 9989 kPa	504.7
388.24 K, 15004 kPa	521.06
388.24 K, 20002 kPa	534.05
388.24 K, 25003 kPa	544.95
388.24 K, 29994 kPa	554.4
388.24 K, 34999 kPa	562.8
388.24 K, 39985 kPa	570.33

Conditions	vapor or sublimation pressure [kPa]
274.84 K	105.09
278.8 K	122.11
283.68 K	145.21
287.85 K	167.86
292.59 K	196.47
296.57 K	221.89
307.78 K	313.51
313.09 K	365.29
318.13 K	418.65
327.87 K	543.04
336.87 K	680.67
345.89 K	842.53
354.94 K	1035.4
363.31 K	1235
372.35 K	1486.5
376.81 K	1618.2
381.64 K	1778.4
385.75 K	1920.4
